Reference: the supplement of paper PMC13380429

Columns and labels:
Settings in all cases: 72 h
HepG2 [1] = test: cell viability relative to DMSO; higher = less toxic
Vero E6 [2] = test: as above
U2OS [3] = test: as above
Calu-3 [4] = test: as above
Caco-2 [5] = test: as above
HepG2 [6] = test: relative viability EC50 (midpoint between 100% and the lowest measured viability); higher = less toxic
Vero E6 [7] = test: as above
U2OS [8] = test: as above
Calu-3 [9] = test: as above
Caco-2 [10] = test: as above
HepG2 [11] = test: drug sensitivity score (DSS) for viability; higher = more toxic; extreme values may be limits of the assay
Vero E6 [12] = test: as above
U2OS [13] = test: as above
Calu-3 [14] = test: as above
Caco-2 [15] = test: as above

Compound	cell viability (HepG2 [1]; 1 nM) [%]	cell viability (HepG2 [1]; 10 nM) [%]	cell viability (HepG2 [1]; 100 nM) [%]	cell viability (HepG2 [1]; 1000 nM) [%]	cell viability (HepG2 [1]; 10000 nM) [%]	cell viability (Vero E6 [2]; 1 nM) [%]	cell viability (Vero E6 [2]; 10 nM) [%]	cell viability (Vero E6 [2]; 100 nM) [%]	cell viability (Vero E6 [2]; 1000 nM) [%]	cell viability (Vero E6 [2]; 10000 nM) [%]	cell viability (U2OS [3]; 1 nM) [%]	cell viability (U2OS [3]; 10 nM) [%]	cell viability (U2OS [3]; 100 nM) [%]	cell viability (U2OS [3]; 1000 nM) [%]	cell viability (U2OS [3]; 10000 nM) [%]	cell viability (Calu-3 [4]; 1 nM) [%]	cell viability (Calu-3 [4]; 10 nM) [%]	cell viability (Calu-3 [4]; 100 nM) [%]	cell viability (Calu-3 [4]; 1000 nM) [%]	cell viability (Calu-3 [4]; 10000 nM) [%]	cell viability (Caco-2 [5]; 1 nM) [%]	cell viability (Caco-2 [5]; 10 nM) [%]	cell viability (Caco-2 [5]; 100 nM) [%]	cell viability (Caco-2 [5]; 1000 nM) [%]	cell viability (Caco-2 [5]; 10000 nM) [%]	relative viability EC50 (HepG2 [6]) [µM]	relative viability EC50 (Vero E6 [7]) [µM]	relative viability EC50 (U2OS [8]) [µM]	relative viability EC50 (Calu-3 [9]) [µM]	relative viability EC50 (Caco-2 [10]) [µM]	drug sensitivity score (HepG2 [11])	drug sensitivity score (Vero E6 [12])	drug sensitivity score (U2OS [13])	drug sensitivity score (Calu-3 [14])	drug sensitivity score (Caco-2 [15])
CCCCc1nc(Cl)c(CO)n1Cc1ccc(-c2ccccc2-c2nnn[nH]2)cc1 [losartan]	110	116	104	96.7	96.7	103	102	102	98.1	101	99.1	104	96.4	105	96.5	103	84.4	96.2	97.5	94.6	94.1	102	93.2	94.7	95.5	> 10	> 10	> 10	> 10	> 10	0	0	0	0	0
Cc1cccc(CN2CCN(C(c3ccccc3)c3ccc(Cl)cc3)CC2)c1 (stereo not given) [meclizine]	102	108	106	92.3	90	107	105	103	102	97.7	96.5	98.6	93.6	101	91.6	92.7	88.4	95.7	94.1	87.6	91.9	101	97.1	99.5	85.8	> 10	> 10	> 10	> 10	> 10	0	0	0	0	0.2
CC(=O)[C@@]1(O)CC[C@H]2[C@@H]3C[C@H](C)C4=CC(=O)CC[C@]4(C)[C@H]3CC[C@@]21C [medroxyprogesterone]	94.7	98.5	103	106	84.1	105	99.5	98.1	99	89	105	97.3	97.5	94.4	94.8	86.5	104	95.6	104	103	96.8	96.7	92.4	91.7	89.1	> 10	> 10	> 10	> 10	> 10	0.2	0	0	0	0
C[N@+]1(CC2CC2)CC[C@]23c4c5ccc(O)c4O[C@H]2C(=O)CC[C@@]3(O)[C@H]1C5 [methylnaltrexone]	93.2	97.7	91.9	96.8	92.3	97.3	105	96.9	97.2	94.5	104	95.2	98.4	97.5	99.6	104	95	107	97.1	103	101	95.6	99.8	94.2	90.8	> 10	> 10	> 10	> 10	> 10	0	0	0	0	0
Cc1ncc([N+](=O)[O-])n1CCO [metronidazole]	97.7	102	111	99.8	105	96.8	99.7	96.2	93.5	100	104	97.6	98.9	96.9	98	97.3	95.9	109	97	102	100	94.4	101	94.9	98.4	> 10	> 10	> 10	> 10	> 10	0	0	0	0	0
CCOC(=O)Nc1ccc2c(c1)N(C(=O)CCN1CCOCC1)c1ccccc1S2 [moracizine]	94.6	92.6	97.8	91.6	99.4	97.1	101	96.9	98.8	96.2	98.4	104	101	99	96.6	103	95.3	98.8	95.3	98.3	101	109	96.3	96.8	80.8	> 10	> 10	> 10	> 10	> 10	0	0	0	0	0.9
CN1CCOC(c2ccccc2)c2ccccc2C1 (stereo not given) [nefopam]	95.8	104	96.3	101	106	95.9	103	98.8	102	95.1	104	99.3	105	100	98.7	105	108	96.7	91	101	86.6	102	95.1	99.5	91.9	> 10	> 10	> 10	> 10	> 10	0	0	0	0	0
CC(=O)Nc1ncc([N+](=O)[O-])s1 [nithiamide]	108	91.7	95.4	92.1	96.3	101	99.5	100	93.4	98	99.2	104	97.8	103	102	97.5	98.2	102	110	101	96.7	97.8	103	105	94.1	> 10	> 10	> 10	> 10	> 10	0	0	0	0	0
NC(=O)N/N=C/c1ccc([N+](=O)[O-])o1 [nitrofurazone]	92.5	101	110	108	87.4	96.8	101	95.1	97.7	106	101	98.1	103	100	103	104	96.9	105	89	95.1	93.8	101	98.8	101	87.2	> 10	> 10	> 10	> 10	> 10	0	0	0	0.2	0.1
O=C1c2cccc3c2[C@H](CCC3)CN1[C@@H]1CN2CCC1CC2 [palonosetron]	94.4	90.2	88.6	96.1	88.9	99.7	103	103	99.3	82.4	98.9	97.5	99.5	100	94.2	106	99	91.3	100	98.8	105	97.5	90.8	96.8	102	> 10	> 10	> 10	> 10	> 10	0	0.5	0	0	0
NC(=O)NC(=O)Cc1ccccc1 [phenacemide]	96.4	103	95.5	107	102	97.5	101	96.8	99.7	96.9	104	102	102	98.8	97.6	102	97.2	101	87.7	104	102	94.4	95.6	100	94.8	> 10	> 10	> 10	> 10	> 10	0	0	0	0	0
CCC(c1ccccc1)c1c(O)c2ccccc2oc1=O (stereo not given) [phenprocoumon]	90.2	107	87.5	99.7	108	100	108	97.3	102	102	96.8	92.5	101	99.8	104	102	100	102	93.6	94.8	91.4	97.6	104	92.2	104	> 10	> 10	> 10	> 10	> 10	0	0	0	0	0
O=C1NC(=O)C(c2ccccc2)(c2ccccc2)N1 [phenytoin]	108	94.8	99.5	95.8	101	96	103	100	98.4	100	97.7	104	96	101	98.9	102	96.1	97.8	93.5	84.9	97.9	95.9	88.6	101	99.3	> 10	> 10	> 10	> 10	> 10	0	0	0	0.3	0
CCCN(CCC)C(=O)C(CCC(=O)OCCCN1CCN(CCOC(=O)Cc2c(C)n(C(=O)c3ccc(Cl)cc3)c3ccc(OC)cc23)CC1)NC(=O)c1ccccc1 (stereo not given) [proglumetacin]	91	114	112	85.3	93.9	115	97.2	98	91.5	102	95.9	106	101	104	94	95.5	96.2	99	110	96.6	104	96.5	99.1	112	108	> 10	> 10	> 10	> 10	> 10	1.1	0	0	0	0
Cc1ccc2c(-c3ccccc3)nc(=O)n(C(C)C)c2c1 [proquazone]	96.7	109	102	102	110	93.4	92.4	89.3	105	103	99.7	94.5	96.2	92.4	105	92.9	94.9	104	105	117	86.9	89.3	81.4	103	99.8	> 10	> 10	> 10	> 10	> 10	0	0	0	0	0
